From patent US20220031871A1, “ANTIBODIES FOR CHELATED RADIONUCLIDES AND CLEARING AGENTS” (Hoffmann-La Roche Inc., priority 2018, published 2022)
Marks after values point to notes of the source that are not given here.

Experiments:
[1] = test system: LS174T tumors; experiment: Protocol 93b: efficacy and biodistribution of CEA-PRIT; assay type: in vivo, SCID mice
Protocol: The bispecific antibodies were compared side-by-side in single- and double-cycle treatment regimens.
Groups A-G represent the treated mice that were followed up for assessment of efficacy, whereas groups H-L comprise mice that were sacrificed for biodistribution purposes 24 h after their last ^212Pb-DOTAM injection.
Solid xenografts were established by subcutaneous injection of cells in RPMI (BxPC3) or DMEM (LS174T) media mixed 1:1 with Corning® Matrigel® basement membrane matrix (growth factor reduced; cat No. 354230).
For protocol 93b, mice (age 9 weeks) were injected s.c. into the right flank with 1×10^6 LS174T cells (passage 26) in 100 μl DMEM/Matrigel. Three days after tumor cell injection, mice were sorted into experimental groups with an average tumor volume of 150 mm^3.
To minimize re-ingestion of radioactive urine/feces after treatment cycle 1, cages were changed 4 hours after ^212Pb-DOTAM administration, and then again at 24 h p.i. For cycle 2, mice were placed in cages with grilled floors for 4 hours after ^212Pb-DOTAM administration, before being transferred to new cages with standard bedding. All cages were then changed at 24 h p.i., as after cycle 1. The tumor development in the mice was followed through repeated calipering three times a week. If needed, additional calipering was performed in the gaps between scheduled measurements. The body weight of the animals was measured repeatedly in the same fashion. Mice whose tumor volume reached 3000 mm^3 were immediately euthanized. Other factors taken into account for euthanasia for ethical reasons were body weight loss, tumor status (e.g. ulceration) and general appearance of the animal. Wet food was provided to all animals starting from five days after the radioactive injection if mandated by an acute loss of body weight (collective or individual) due to radiation-induced toxicity, until all individuals had recovered sufficiently.
The following organs and tissues were harvested from groups A-G at the time of euthanasia: bladder, ovaries, liver, spleen, kidneys, femur (including bone marrow), colon, jejunum, stomach, and tumor. Unexpected or abnormal conditions were noted and photographed. Tissues were immediately put in 10% neutral buffered formalin (4° C.) and then transferred to PBS (4° C.) after 5 days. The formalin-fixed samples were then shipped to Roche Pharma Research and Early Development, Roche Innovation Center Basel, for further processing and analysis.
Mice in groups H, J, and L were sacrificed and necropsied 24 hours after their first and only injection of ^212Pb-DOTAM; groups I and K were sacrificed and necropsied 24 hours after their second ^212Pb-DOTAM injection. The following organs and tissues were harvested: blood, bladder, small intestine, colon, spleen, pancreas, kidneys, liver, lung, heart, femoral bone, muscle, tail, and tumor. Collected samples were weighed and measured for radioactivity, and the percent injected dose per gram of tissue (% ID/g) subsequently calculated, including corrections for decay and background.

[2] = test system: s.c. BxPC3 tumors; experiment: Protocol 146: radiation dosimetry (absorbed doses, MIRD); assay type: in vivo, SCID mice; details: for Mean absorbed dose, RBE = 1 / Mean absorbed dose, RBE = 5: 20 μCi, pretargeted, tumor-bearing SCID
Protocol: Absorbed doses were calculated following the formalism outlined in Pamphlet No. 21 from the Medical Internal Radiation Dose (MIRD) Committee (Bolch W E, Eckerman K F, Sgouros G, and Thomas S R. J Nucl Med 2009; 50:477-484). Formally, the absorbed dose D(rT) in a target tissue or region rT is calculated as the time-integral of the activity A(rs,t) multiplied by the absorbed dose rate per unit activity S(rT←rs) summed over all source regions rs. Given that the vast majority of energy released by the ^212Pb decay chain comes from alpha radiation and furthermore by the much higher biological effectiveness of alpha radiation (as characterized by the relative biological effectiveness, RBE) two approximations were made: • 1. the energy is absorbed locally due to the short range of the alpha particles, which means that only the term s(rT←rT) is Considered, and • 2. the contribution from beta and gamma radiation is neglected.
With Δα being the energy released by alpha decays, or rather the sum of the mean energies released by alpha decays in the decay chain of ^212Pb, here expressed in units […], the absorbed dose in a target tissue or region rT is calculated by the formula: […]
The calculations are based on the composite (average) decay-corrected radioactive concentration at time t, expressed as [% ID^t/g]t. In a first step, these are transformed into radioactive concentrations as μCi per kg tissue weight for the target tissue rT:
AQ[μCi] is the injected activity and λ is the exponential decay rate for ^212Pb, 0.0651 h^−1 (corresponding to the 10.6-hour half-life).
In a second step, the radioactive concentration was integrated over time for each tissue. This was achieved using the “Linear Log Trapezoidal calculation method” in the pharmacokinetic software Phoenix WinNonlin 6.4 (Certara USA, Inc., 100 Overlook Center, Suite 101, Princeton, N.J. 08540 USA). The model type “Plasma” was used with uniform weighting.
In the final step, absorbed doses were calculated by multiplying the time integrals of the radioactive concentration by the energy release Δα=170·10^−6J/(μCi·h).
The mean absorbed doses in Gy calculated for protocol 146 are shown in Table 24, both as absolute values (RBE=1) and corrected for the higher cytotoxicity of alpha emitters (RBE=5).

[3] = labelled group 30 + 30 μCi 212Pb-DOTAM, multiple test level = 0.00238

With `NC(=O)CN1CCN(CC(N)=O)CCN(CC(N)=O)CCN(CC(N)=O)CC1.[212Pb+2]` [^212Pb-DOTAM] the TGI ([1]; day 22, 30+30 μCi, compared with PBS) was 64.7%, the “Pairwise Log-Rank Test, survival, p vs PRIT-0175 30 + 30 μCi” value [1, 3] was 0.0090* and the “Pairwise Log-Rank Test, survival, p vs PRIT-0213 30 + 30 μCi” value [1, 3] was <0.0001*. For the same compound, the “Pairwise Log-Rank Test, survival, p vs PRIT-0213 30 μCi” value [1, 3] was “<.0001*”, the “Pairwise Log-Rank Test, survival, p vs PRIT-0214 30 + 30 μCi” value [1, 3] was “<.0001*” and the “Pairwise Log-Rank Test, survival, p vs PRIT-0214 30 μCi” value [1, 3] was 0.0091*. For the same compound, the “Pairwise Log-Rank Test, survival, p vs Vehicle (PBS)” value [1, 3] was 0.0034*, the “Pairwise Wilcoxon Test, survival, p vs PRIT-0175 30 + 30 μCi” value [1, 3] was 0.0417* and the “Pairwise Wilcoxon Test, survival, p vs PRIT-0213 30 + 30 μCi” value [1, 3] was 0.0002*. The “Pairwise Wilcoxon Test, survival, p vs PRIT-0213 30 μCi” value [1, 3] was 0.0002*, the “Pairwise Wilcoxon Test, survival, p vs PRIT-0214 30 + 30 μCi” value [1, 3] was 0.0002* and the “Pairwise Wilcoxon Test, survival, p vs PRIT-0214 30 μCi” value [1, 3] was 0.0160*. The “Pairwise Wilcoxon Test, survival, p vs Vehicle (PBS)” value [1, 3] was 0.0111*, the “absorbed dose in most normal tissues, except bladder” value ([2]; 20 μCi ^212Pb-DOTAM, RBE=1) was “below 2 Gy” and the “Mean absorbed dose, RBE = 1” value ([2]; Abdominal fat) was 1.25 Gy. The “Mean absorbed dose, RBE = 5” value ([2]; Abdominal fat) was 6.25 Gy, the “Mean absorbed dose, RBE = 1” value ([2]; Bladder) was 6.53 Gy and the “Mean absorbed dose, RBE = 5” value ([2]; Bladder) was 32.64 Gy. The “Mean absorbed dose, RBE = 1” value ([2]; Blood) was 0.72 Gy, the “Mean absorbed dose, RBE = 5” value ([2]; Blood) was 3.60 Gy and the “Mean absorbed dose, RBE = 1” value ([2]; Brain) was 0.04 Gy. For the same compound, the “Mean absorbed dose, RBE = 5” value ([2]; Brain) was 0.19 Gy, the “Mean absorbed dose, RBE = 1” value ([2]; Colon) was 0.43 Gy and the “Mean absorbed dose, RBE = 5” value ([2]; Colon) was 2.17 Gy. For the same compound, the “Mean absorbed dose, RBE = 1” value ([2]; Femoral bone) was 0.27 Gy, the “Mean absorbed dose, RBE = 5” value ([2]; Femoral bone) was 1.33 Gy and the “Mean absorbed dose, RBE = 1” value ([2]; Heart) was 0.33 Gy. The “Mean absorbed dose, RBE = 5” value ([2]; Heart) was 1.63 Gy, the “Mean absorbed dose, RBE = 1” value ([2]; Kidneys) was 1.43 Gy and the “Mean absorbed dose, RBE = 5” value ([2]; Kidneys) was 7.14 Gy. The “Mean absorbed dose, RBE = 1” value ([2]; Liver) was 0.22 Gy, the “Mean absorbed dose, RBE = 5” value ([2]; Liver) was 1.09 Gy and the “Mean absorbed dose, RBE = 1” value ([2]; Lung) was 1.34 Gy. The “Mean absorbed dose, RBE = 5” value ([2]; Lung) was 6.69 Gy, the “Mean absorbed dose, RBE = 1” value ([2]; Muscle) was 0.29 Gy and the “Mean absorbed dose, RBE = 5” value ([2]; Muscle) was 1.47 Gy. The “Mean absorbed dose, RBE = 1” value ([2]; Pancreas) was 0.36 Gy, the “Mean absorbed dose, RBE = 5” value ([2]; Pancreas) was 1.80 Gy and the “Mean absorbed dose, RBE = 1” value ([2]; Serum) was 1.64 Gy. The “Mean absorbed dose, RBE = 5” value ([2]; Serum) was 8.20 Gy, the “Mean absorbed dose, RBE = 1” value ([2]; Skin) was 0.47 Gy and the “Mean absorbed dose, RBE = 5” value ([2]; Skin) was 2.33 Gy. The “Mean absorbed dose, RBE = 1” value ([2]; Small intestine) was 0.22 Gy, the “Mean absorbed dose, RBE = 5” value ([2]; Small intestine) was 1.08 Gy and the “Mean absorbed dose, RBE = 1” value ([2]; Spleen) was 0.27 Gy. For the same compound, the “Mean absorbed dose, RBE = 5” value ([2]; Spleen) was 1.36 Gy, the “Mean absorbed dose, RBE = 1” value ([2]; Stomach) was 0.24 Gy and the “Mean absorbed dose, RBE = 5” value ([2]; Stomach) was 1.20 Gy. For the same compound, the “Mean absorbed dose, RBE = 1” value ([2]; Tail) was 0.54 Gy, the “Mean absorbed dose, RBE = 5” value ([2]; Tail) was 2.69 Gy and the “Mean absorbed dose, RBE = 1” value ([2]; Tumor (BxPC3)) was 19.91 Gy. For the same compound, the “Mean absorbed dose, RBE = 5” value ([2]; Tumor (BxPC3)) was 99.55 Gy, the “Mean absorbed dose, RBE = 1” value ([2]; Uterus) was 0.61 Gy and the “Mean absorbed dose, RBE = 5” value ([2]; Uterus) was 3.04 Gy.
